Measurements from patent publication US6525099B1, “N-substituted sulfonamide derivatives” (Eli Lilly and Company, priority 1998, dated 2003).

Columns and labels:
[1] = target: T1, human GluR4B receptor (Homo sapiens, UniProt P48058); experiment: potentiation of glutamate receptor-mediated response in HEK cells stably expressing human GluR4B (Fluo-3 calcium fluorescence); type: cell-based; details: human GluR4B receptor expressed in HEK 293 cells
T1 construct: expressed in transfected cells
Excerpt: The ability of compounds of formula I to potentiate glutamate receptor-mediated response may be determined using fluorescent calcium indicator dyes (Molecular Probes, Eugene, Oreg., Fluo-3) and by measuring glutamate-evoked efflux of calcium into GluR4 transfected HEK293 cells, as described in more detail below.
In one test, 96 well plates containing confluent monolayers of HEK cells stably expressing human GluR4B (obtained as described in European Patent Application Publication Number EP-A1-583917) are prepared. The tissue culture medium in the wells is then discarded, and the wells are each washed once with 200 μl of buffer (glucose, 10 mM, sodium chloride, 138 mM, magnesium chloride, 1 mM, potassium chloride, 5 mM, calcium chloride, 5 mM, N-[2-hydroxyethyl]-piperazine-N-[2-ethanesulfonic acid], 10 mM, to pH 7.1 to 7.3). […]
Each test is then performed as follows. […] A second fluorescent reading is taken after 5 minutes incubation. 15 μl of 400 μM glutamate solution is then added to each well (final glutamate concentration 100 μM), and a third reading is taken. The activities of test compounds and cyclothiazide solutions are determined by subtracting the second from the third reading (fluorescence due to addition of glutamate in the presence or absence of test compound or cyclothiazide) and are expressed relative to enhance fluorescence produced by 100 μM cyclothiazide.

T1 sequence (P48058 21-902): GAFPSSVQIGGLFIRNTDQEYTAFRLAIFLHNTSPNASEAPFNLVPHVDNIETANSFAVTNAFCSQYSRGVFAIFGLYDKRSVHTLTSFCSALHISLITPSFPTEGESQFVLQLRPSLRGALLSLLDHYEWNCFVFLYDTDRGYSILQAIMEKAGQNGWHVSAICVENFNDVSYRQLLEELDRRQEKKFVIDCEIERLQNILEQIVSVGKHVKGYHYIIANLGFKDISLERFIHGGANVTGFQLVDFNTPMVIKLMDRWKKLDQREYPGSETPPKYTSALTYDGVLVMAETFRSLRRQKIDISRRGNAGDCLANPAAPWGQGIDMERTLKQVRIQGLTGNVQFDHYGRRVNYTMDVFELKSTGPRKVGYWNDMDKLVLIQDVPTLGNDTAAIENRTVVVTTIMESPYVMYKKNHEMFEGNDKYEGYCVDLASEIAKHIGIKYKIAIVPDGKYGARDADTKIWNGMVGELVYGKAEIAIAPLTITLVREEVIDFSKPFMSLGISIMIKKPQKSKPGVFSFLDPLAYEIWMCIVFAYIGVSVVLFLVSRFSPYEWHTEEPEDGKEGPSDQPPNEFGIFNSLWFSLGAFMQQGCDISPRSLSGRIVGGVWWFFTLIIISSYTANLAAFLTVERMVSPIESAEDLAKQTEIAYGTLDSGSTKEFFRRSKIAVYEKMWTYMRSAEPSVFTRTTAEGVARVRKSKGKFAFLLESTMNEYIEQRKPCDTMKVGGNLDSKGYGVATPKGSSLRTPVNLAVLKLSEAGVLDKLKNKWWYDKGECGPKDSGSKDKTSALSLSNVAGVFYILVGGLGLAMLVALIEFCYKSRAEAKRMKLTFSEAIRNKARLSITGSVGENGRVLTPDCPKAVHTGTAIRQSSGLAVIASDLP

CC(C)(C)c1ccc(C2(CNS(=O)(=O)C(F)(F)F)CC2)cc1
melting point: 82 to 84 °C

CC(C)S(=O)(=O)NCC1(c2ccc(C(C)(C)C)cc2)CC1
melting point: 87 to 89.5 °C

NS(=O)(=O)c1cc2c(cc1Cl)NC(C1CC3C=CC1C3)NS2(=O)=O (stereo not drawn) [cyclothiazide]
potentiation of agonist-induced excitability [1]: potentiate agonist-induced excitability of human GluR4B receptor
